Columns and labels:
[1] = test system: MDA468 (human breast cancer cell); test: Cell proliferation (MTS) assay, MDA468; type: cell-based; conditions: three days treatment
How it was run: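 Cells plated at about 3000 per well in RPMI-1640/10% FBS were dosed with compound one day later. Viability was read by MTS conversion (absorbance 490 nm, 1–2 h) three days after treatment began. Effect is expressed as percent of vehicle-treated growth on the same plate.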

HCT116 colon tumor cells = test: Tumor cell growth assay, combination with MEK inhibitors, HCT116; type: cell-based, human; conditions: MEK inhibitor at low constant dose
Experimental: (§1) Human tumor cell are all obtained from ATCC, and are cultured using standard cell culture methods. Cells are plated in 96-well culture plates at 1000 to 3000 cells per well. One day following plating, cells are treated with various doses of PI3K inhibitor Compound 4 or Compound 5 alone or with a low constant dose of MEK inhibitor 2-(2-chloro-4-iodoanilino)-N-(cycloprorylmethoxy-3,4-difluobenzamide) (1 μg/ml) or UO126 (5 μg/ml). UO126 is also known as 1,4-diamino-2,3-dicyano-1,4-bis[2-aminophenylthio]butadiene. In some experiments, cells are treated alone with various doses of the MEK inhibitor (2-(2-chloro-4-iodoanilino)-N-(cycloprorylmethoxy-3,4-difluobenzamide)), or HER2/neu inhibitor HKI-272, or mTOR inhibitor CCI-779, or with a low constant dose of Compound 4 (0.1 μg/ml). […] Three days after drug treatment, viable cell densities are determined by metabolic conversion (by viable cells) of the dye MTS, an established cell proliferation assay. […] The MTS assay results are read in a 96-well plate reader by measuring absorbance at 490 nm. The effect of each treatment is calculated as percent of control growth relative to the vehicle DMSO-treated cells grown in the same culture plate. […]

[2] = test system: panel of seven colon tumor lines; test: Tumor cell growth assay, combination with MEK inhibitor, colon panel; type: cell-based, human
Experimental: as §1

[3] = test system: MDA231 breast tumor cells; test: Tumor cell growth assay, combination with MEK inhibitor, MDA231; type: cell-based, human
Experimental: as §1

[4] = test system: DU145 prostrate tumor cells; test: Tumor cell growth assay, combination with MEK inhibitor, DU145; type: cell-based, human
Experimental: as §1

HCT116 cells = test: Apoptosis assay (Apo-ONE Caspase-3/7), HCT116; type: cell-based, human
Experimental: Cells are plated in a 96-well plate at a density of 3000 cells per well. 24 hr later cells are treated with single agent or combination as indicated. Apoptosis is measured at 24 hr and 48 hr post drug treatment by Apo-ONE Caspase-3/7 assay kit (cat # G7791, Promega Corp.) following the protocol provided by the vendor. Assay mix is added to cells and incubated at room temperature for 3 hours with gentle mixing using a plate shaker. The fluorescence of each well is read using the Victor Wallac Plate Reader. Each experimental plate contains blank wells (without cells) as background fluorescence that is subtracted from all wells to obtain experimental values. Data are expressed as relative fluorescent units (RFLU) or as Apo-ONE units.

[5] = test system: HER2/Neu-overexpressing MDA361-DYT2 breast tumor cells; test: Tumor cell growth assay, HKI-272 and combination, MDA361-DYT2; type: cell-based, human; conditions: compound 4 at 0.1 μg/ml; MDA361-DYT2
Experimental: as §1

MDA-MB-231 breast cells = test: Tumor cell growth assay, combination with CCI-779, MDA-MB-231; type: cell-based, human; conditions: compound 4 at 0.1 μg/ml
Experimental: as §1

[6] = test system: colon carcinoma, NSCLC, DU145 and MDA231 cell lines; test: Tumor cell growth assay, combination with MEK inhibitors, tumor line panel; type: cell-based, human; conditions: HCT116, HT29, SW620, SW480, LS-174T, Caco2, Lovo, A549, H157, DU145, MDA231
Experimental: as §1

Structure (SMILES): COC[C@H]1OC(=O)/C(=C/N(CCO)C(C)(C)C)C2=C(O)C(=O)C3=C([C@H](OC(C)=O)C[C@@]4(C)C3CC[C@@H]4O)[C@]21C (stereo partly drawn) [Compound 4, (1E,4S,4aR,5R,6aS,7S)-1-{[tert-butyl(2-hydroxyethyl)amino]methylene}-7,11-dihydroxy-4-(methoxymethyl)-4a,6a-dimethyl-2,10-dioxo-1,2,4,4a,5,6,6a,7,8,9,9a,10-dodecahydroindeno[4,5-h]isochromen-5-yl acetate]
- MDA468 IC50 ([1]; Table 1): 0.3 µg/mL
- MDA468 IC50 ([1]; Table 2): 0.51 µg/mL
- growth inhibition in combination with MEK inhibitors (HCT116 colon tumor cells): synergistically inhibited growth
- growth inhibition in combination with MEK inhibitor 2-(2-chloro-4-iodoanilino)-N-(cycloprorylmethoxy-3,4-difluobenzamide) [2]: synergistic growth inhibition
- growth inhibition in combination with MEK inhibitor 2-(2-chloro-4-iodoanilino)-N-(cycloprorylmethoxy-3,4-difluobenzamide) [3]: synergistic growth inhibition
- growth inhibition in combination with MEK inhibitor 2-(2-chloro-4-iodoanilino)-N-(cycloprorylmethoxy-3,4-difluobenzamide) [4]: synergistic growth inhibition
- induction of apoptosis in combination with MEK inhibitor 2-(2-chloro-4-iodoanilino)-N-(cycloprorylmethoxy-3,4-difluobenzamide) (HCT116 cells): synergistic induction of apoptosis
- growth inhibition in combination with HER2/neu inhibitor HKI-272 [5]: synergistically inhibited growth
- growth inhibition in combination with mTOR inhibitor CCI-779 (MDA-MB-231 breast cells): synergistically inhibited growth
- growth inhibition in combination with MEK inhibitors UO126 and 2-(2-chloro-4-iodoanilino)-N-(cycloprorylmethoxy-3,4-difluobenzamide) [6]: broad synergistic growth inhibition

Source: US7666901B2, “Analogs of 17-hydroxywortmannin as PI3K inhibitors” (Wyeth, priority 2004, dated 2010)
